# Measured values published in patent publication US4161520A, “Method of treating hypertension” (priority 1976, dated 1979).
# Legend:
# Format in all cases: in vivo
# [1] = system: spontaneous hypertensive (SH) rat; assay: Effects on blood pressure in the spontaneous hypertensive (SH) rat (Example 2, Table II)
# Experimental: Test conducted for effects on blood pressure in the spontaneous hypertensive (SH) rat.
# Twelve week old spontaneous hypertensive male rats (Okomoto strain) are used as a model in the antihypertensive test.
# Systolic blood pressure is measured indirectly from the tail of unanesthetized rats using a pneumatic pulse transducer. Control readings are taken prior to drug administration and post drug readings are taken at 1, 3, 6 and 24 hours.
# Drug-related alteration in systolic blood pressure is expressed as percentage change by comparing control absolute values with post drug absolute values.
# The results are expressed as absolute values and percent changes from controls.
# Compounds are considered active when about a 15% or greater reduction in blood pressure is obtained. However, the reduction in blood pressure must show mathematical significance ([…]). The compound was administered for a five-day period by intubation and thereafter dosing was discontinued but blood pressure monitoring was continued.
# [2] = system: DOCA-Na. rat; assay: Comparative antihypertensive activity of polyether ionophores in the DOCA-Na rat (Example 3, Table III); conditions: oral, five-day period, daily dose 1/100 of oral LD50 up to 10 mg/kg/day
# Experimental: Using bromolasalocid as a standard for comparison, a number of polyether ionophores were tested for antihypertensive activity. The tests were conducted utilizing single oral dosages in the DOCA-Na. rat over a five-day period with dosing discontinued thereafter. Blood pressure monitoring was carried out for the five-day period and daily after cessation of dosing until blood pressure returned to pre-drug levels. […] The daily dosage was calculated by using one-one hundredth (1/100) of the oral (per os) toxicity (LD50) up to a maximum of 10 mg/kg/day. The antihypertensive activity expressed as AHR (Subacute antihypertensive ratio) was calculated using bromolasalocid as the standard reference (Table III).
# [3] = Oral (per os) toxicity (LD50); conditions: in vivo, read-out: LD50
# [4] = system: DOCA Na hypertensive rat; assay: Antihypertensive activity, subacute oral dosing in the DOCA Na rat (Example 1, Table I)
# Experimental: A test was conducted for antihypertensive activity in the DOCA Na rat. DOCA rats weighing 170 to 210 grams are used in the test. DOCA Na hypertension is induced by unilateral nephrectomy followed by subcutaneous implantation of a 25 mg. desoxycorticosterone (DOCA) pellet. Animals are placed in individual cages receiving 0.9% sodium chloride solution to drink and rat chow diet ad libitum. Two weeks are allowed to elapse from the time of surgery for development of hypertension, i.e., systolic blood pressure of at least 150 mmHg.
# Systolic blood pressure and heart rate are measured indirectly from the tail pressure pulse of unanesthetized rats, using a pneumatic pulse transducer. Control readings are taken prior to drug and post drug readings are taken at 1, 3, 6 and 24 hours.
# The experimental results are represented as absolute values. Drug-related alterations in systolic blood pressure are expressed as percentage change by comparing control absolute values with post drug absolute values. Compounds are considered active when about a 15% or greater reduction in blood pressure is obtained. However, the reduction in blood pressure must show mathematical significance ([…]).
# A derivative of the polyether ionophore, lasalocid, i.e., the bromo derivative of lasalocid, was tested in the above screen. The compound was orally administered for a five-day period by intubation and thereafter dosing was discontinued but blood pressure monitoring was continued. The following table illustrates the results obtained utilizing bromolasalocid as the test drug.
compound,measurement,setting,value
CC[C@@H](C(=O)[C@@H](C)[C@@H](O)[C@H](C)CCc1c(Br)cc(C)c(O)c1C(=O)O)[C@H]1O[C@](CC)([C@H]2CC[C@](O)(CC)[C@H](C)O2)C[C@@H]1C [bromolasalocid],Average Systolic Blood Pressure Per Group,"[1]; 10 mg/kg per day for 5 days, Day 1 pm, pre-drug 227, p<.05",211 mmHg
same,Average Systolic Blood Pressure Per Group,"[1]; 10 mg/kg per day for 5 days, Day 2 am, pre-drug 227",215 mmHg
same,Average Systolic Blood Pressure Per Group,"[1]; 10 mg/kg per day for 5 days, Day 2 pm, pre-drug 227",217 mmHg
same,Average Systolic Blood Pressure Per Group,"[1]; 10 mg/kg per day for 5 days, Day 3 am, pre-drug 227, p<.05",203 mmHg
same,Average Systolic Blood Pressure Per Group,"[1]; 10 mg/kg per day for 5 days, Day 3 pm, pre-drug 227, p<.05",199 mmHg
same,Average Systolic Blood Pressure Per Group,"[1]; 10 mg/kg per day for 5 days, Day 4 am, pre-drug 227, p<.05",193 mmHg
same,Average Systolic Blood Pressure Per Group,"[1]; 10 mg/kg per day for 5 days, Day 4 pm, pre-drug 227, p<.05",198 mmHg
same,Average Systolic Blood Pressure Per Group,"[1]; 10 mg/kg per day for 5 days, Day 5 am, pre-drug 227, p<.05",200 mmHg
same,Average Systolic Blood Pressure Per Group,"[1]; 10 mg/kg per day for 5 days, Day 5 pm, pre-drug 227, p<.05",209 mmHg
same,Average Systolic Blood Pressure Per Group,"[1]; 10 mg/kg per day for 5 days, Day 8 am, pre-drug 227, p<.05",199 mmHg
same,Average Systolic Blood Pressure Per Group,"[1]; 20 mg/kg per day for 5 days, Day 1 pm, pre-drug 211",201 mmHg
same,Average Systolic Blood Pressure Per Group,"[1]; 20 mg/kg per day for 5 days, Day 2 am, pre-drug 211",209 mmHg
same,Average Systolic Blood Pressure Per Group,"[1]; 20 mg/kg per day for 5 days, Day 2 pm, pre-drug 211",200 mmHg
same,Average Systolic Blood Pressure Per Group,"[1]; 20 mg/kg per day for 5 days, Day 3 am, pre-drug 211",214 mmHg
same,Average Systolic Blood Pressure Per Group,"[1]; 20 mg/kg per day for 5 days, Day 3 pm, pre-drug 211",209 mmHg
same,Average Systolic Blood Pressure Per Group,"[1]; 20 mg/kg per day for 5 days, Day 4 am, pre-drug 211",205 mmHg
same,Average Systolic Blood Pressure Per Group,"[1]; 20 mg/kg per day for 5 days, Day 4 pm, pre-drug 211",204 mmHg
same,Average Systolic Blood Pressure Per Group,"[1]; 20 mg/kg per day for 5 days, Day 5 am, pre-drug 211",210 mmHg
same,Average Systolic Blood Pressure Per Group,"[1]; 20 mg/kg per day for 5 days, Day 5 pm, pre-drug 211, p<.05",187 mmHg
same,Average Systolic Blood Pressure Per Group,"[1]; 20 mg/kg per day for 5 days, Day 8 am, pre-drug 211",210 mmHg
same,Average Systolic Blood Pressure Per Group,"[1]; 50 mg/kg per day for 5 days, Day 1 pm, pre-drug 215",208 mmHg
same,Average Systolic Blood Pressure Per Group,"[1]; 50 mg/kg per day for 5 days, Day 2 am, pre-drug 215, p<.05",193 mmHg
same,Average Systolic Blood Pressure Per Group,"[1]; 50 mg/kg per day for 5 days, Day 2 pm, pre-drug 215, p<.05",176 mmHg
same,Average Systolic Blood Pressure Per Group,"[1]; 50 mg/kg per day for 5 days, Day 3 am, pre-drug 215, p<.05",175 mmHg
same,Average Systolic Blood Pressure Per Group,"[1]; 50 mg/kg per day for 5 days, Day 3 pm, pre-drug 215, p<.05",160 mmHg
same,Average Systolic Blood Pressure Per Group,"[1]; 50 mg/kg per day for 5 days, Day 4 am, pre-drug 215, p<.05",183 mmHg
same,Average Systolic Blood Pressure Per Group,"[1]; 50 mg/kg per day for 5 days, Day 4 pm, pre-drug 215, p<.05",169 mmHg
same,Average Systolic Blood Pressure Per Group,"[1]; 50 mg/kg per day for 5 days, Day 5 am, pre-drug 215, p<.05",184 mmHg
same,Average Systolic Blood Pressure Per Group,"[1]; 50 mg/kg per day for 5 days, Day 5 pm, pre-drug 215, p<.05",167 mmHg
same,Average Systolic Blood Pressure Per Group,"[1]; 50 mg/kg per day for 5 days, Day 8 am, pre-drug 215",207 mmHg
same,Average Systolic Blood Pressure Per Group,"[1]; 100 mg/kg per day for 5 days, Day 1 pm, pre-drug 218, p<.05",176 mmHg
same,Average Systolic Blood Pressure Per Group,"[1]; 100 mg/kg per day for 5 days, Day 2 am, pre-drug 218, p<.05",185 mmHg
same,Average Systolic Blood Pressure Per Group,"[1]; 100 mg/kg per day for 5 days, Day 2 pm, pre-drug 218, p<.05",142 mmHg
same,Average Systolic Blood Pressure Per Group,"[1]; 100 mg/kg per day for 5 days, Day 3 am, pre-drug 218, p<.05",128 mmHg
same,Average Systolic Blood Pressure Per Group,"[1]; 100 mg/kg per day for 5 days, Day 3 pm, pre-drug 218, p<.05",123 mmHg
same,Average Systolic Blood Pressure Per Group,"[1]; 100 mg/kg per day for 5 days, Day 4 am, pre-drug 218, p<.05",113 mmHg
same,Average Systolic Blood Pressure Per Group,"[1]; 100 mg/kg per day for 5 days, Day 4 pm, pre-drug 218, p<.05",131 mmHg
same,Average Systolic Blood Pressure Per Group,"[1]; 100 mg/kg per day for 5 days, Day 5 pm, pre-drug 218, p<.05",108 mmHg
same,ONSET TO MAX. RESPONSE,[2],4 days
same,DURATION OF EFFECT,[2]; monitored until return to pre-drug levels,15 days
same,LD50,[3],1200 mg/kg
same,Average Systolic Blood Pressure Per Group,"[4]; 5 mg/kg per day oral for 5 days, Day 2 am, pre-drug 209",206 mmHg
same,Average Systolic Blood Pressure Per Group,"[4]; 5 mg/kg per day oral for 5 days, Day 2 pm, pre-drug 209",194 mmHg
same,Average Systolic Blood Pressure Per Group,"[4]; 5 mg/kg per day oral for 5 days, Day 3 pm, pre-drug 209",191 mmHg
same,Average Systolic Blood Pressure Per Group,"[4]; 5 mg/kg per day oral for 5 days, Day 4 am, pre-drug 209",206 mmHg
same,Average Systolic Blood Pressure Per Group,"[4]; 5 mg/kg per day oral for 5 days, Day 5 am, pre-drug 209",197 mmHg
same,Average Systolic Blood Pressure Per Group,"[4]; 5 mg/kg per day oral for 5 days, Day 5 pm, pre-drug 209",196 mmHg
same,Average Systolic Blood Pressure Per Group,"[4]; 10 mg/kg per day oral for 5 days, Day 1 pm, pre-drug 217, p<.05",192 mmHg
same,Average Systolic Blood Pressure Per Group,"[4]; 10 mg/kg per day oral for 5 days, Day 2 am, pre-drug 217, p<.05",181 mmHg
same,Average Systolic Blood Pressure Per Group,"[4]; 10 mg/kg per day oral for 5 days, Day 2 pm, pre-drug 217, p<.05",166 mmHg
same,Average Systolic Blood Pressure Per Group,"[4]; 10 mg/kg per day oral for 5 days, Day 3 am, pre-drug 217, p<.05",171 mmHg
same,Average Systolic Blood Pressure Per Group,"[4]; 10 mg/kg per day oral for 5 days, Day 3 pm, pre-drug 217, p<.05",163 mmHg
same,Average Systolic Blood Pressure Per Group,"[4]; 10 mg/kg per day oral for 5 days, Day 4 am, pre-drug 217, p<.05",173 mmHg
same,Average Systolic Blood Pressure Per Group,"[4]; 10 mg/kg per day oral for 5 days, Day 4 pm, pre-drug 217, p<.05",157 mmHg
same,Average Systolic Blood Pressure Per Group,"[4]; 10 mg/kg per day oral for 5 days, Day 5 pm, pre-drug 217, p<.05",166 mmHg
same,Period for which blood pressure remained below control after drug dosing,[4]; after oral dosing for the first five consecutive days,10 days
